Data taken from ChEMBL document CHEMBL1122779, “Antiinflammatory agents. 3. Synthesis and pharmacological evaluation of 2-amino-3-benzoylphenylacetic acid and analogues” (J Med Chem, 1984).

Experiments:
Rattus norvegicus [1] = assay: Percent change in average volume of pleural fluid at a dose 4 mg/kg of indomethacin and 5-h response is evaluated by Evans blue-carrageenan induced pleural effusion assay; assay type: functional
Cyclooxygenase = target: T1, Cyclooxygenase (Bos taurus, UniProt O62664+O62698)
T1 sequence (O62664 whole entry): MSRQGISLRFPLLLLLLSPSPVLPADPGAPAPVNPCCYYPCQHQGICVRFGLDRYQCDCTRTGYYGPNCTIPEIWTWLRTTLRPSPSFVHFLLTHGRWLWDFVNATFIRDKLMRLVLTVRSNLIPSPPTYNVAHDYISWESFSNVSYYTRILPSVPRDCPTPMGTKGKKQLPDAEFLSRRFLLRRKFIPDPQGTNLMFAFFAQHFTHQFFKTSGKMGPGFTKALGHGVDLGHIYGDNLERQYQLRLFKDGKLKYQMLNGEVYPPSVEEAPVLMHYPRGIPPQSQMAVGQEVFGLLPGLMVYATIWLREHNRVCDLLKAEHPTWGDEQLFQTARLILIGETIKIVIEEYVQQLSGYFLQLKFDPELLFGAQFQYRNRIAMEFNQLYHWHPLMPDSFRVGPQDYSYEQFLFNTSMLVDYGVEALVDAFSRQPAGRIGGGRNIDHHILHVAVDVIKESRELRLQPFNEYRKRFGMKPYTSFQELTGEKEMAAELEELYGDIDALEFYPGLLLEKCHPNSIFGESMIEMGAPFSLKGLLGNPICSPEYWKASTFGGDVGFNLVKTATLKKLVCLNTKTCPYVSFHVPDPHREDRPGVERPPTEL
T1 sequence (O62698 whole entry): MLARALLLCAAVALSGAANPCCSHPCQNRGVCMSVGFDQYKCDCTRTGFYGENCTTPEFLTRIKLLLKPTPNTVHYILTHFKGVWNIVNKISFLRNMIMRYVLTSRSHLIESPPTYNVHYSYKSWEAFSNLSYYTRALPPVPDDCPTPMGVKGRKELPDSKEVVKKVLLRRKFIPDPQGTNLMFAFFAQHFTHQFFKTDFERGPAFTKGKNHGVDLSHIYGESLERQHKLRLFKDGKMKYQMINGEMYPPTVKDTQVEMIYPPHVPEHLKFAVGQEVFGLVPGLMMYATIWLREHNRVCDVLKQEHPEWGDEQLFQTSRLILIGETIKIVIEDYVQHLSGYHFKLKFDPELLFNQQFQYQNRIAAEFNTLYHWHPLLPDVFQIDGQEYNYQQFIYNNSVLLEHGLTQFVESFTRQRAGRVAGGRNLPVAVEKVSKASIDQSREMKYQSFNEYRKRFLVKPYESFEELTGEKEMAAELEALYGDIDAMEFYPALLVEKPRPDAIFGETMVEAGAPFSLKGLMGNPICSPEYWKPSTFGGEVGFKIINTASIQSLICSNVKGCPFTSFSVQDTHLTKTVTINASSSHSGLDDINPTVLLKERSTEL
Description: Inhibition of prostaglandin G/H synthase obtained from bovine seminal vesicles.

Rattus norvegicus [2] = assay: Percent change in average volume of pleural fluid at a dose of 4.0 mg/kg and 5-h response by Evans blue-carrageenan induced pleural effusion assay.; assay type: functional
Rattus norvegicus [3] = assay: Acute gastric toxicity (single oral dose) in male fasted rats; assay type: organism-based, Stomach; details: in vivo
Rattus norvegicus [4] = species: Rattus norvegicus; assay: Evaluated for chronic potency in adjuvant arthritis assay; assay type: functional
Mus musculus [5] = assay: Oral analgesic activity was determined in mice by the acetylcholine-induced abdominal constriction assay upon ip administration of acetylcholine bromide 5 hours following oral administration; assay type: functional; details: Abdomen
Mus musculus [6] = assay: Oral analgesic activity was determined in mice by the acetylcholine-induced abdominal constriction assay upon ip administration of acetylcholine bromide 20 min following oral administration; assay type: functional; details: Abdomen
Rattus norvegicus [7] = assay: Percent change in average volume of pleural fluid at a dose of 100 mg/kg and 5-h response by Evans blue-carrageenan induced pleural effusion assay.; assay type: functional
Rattus norvegicus [8] = species: Rattus norvegicus; assay: Evaluated for acute potency in pleural effusion assay; assay type: functional

Row | SMILES | Change (Rattus norvegicus [1]) | IC50 (Cyclooxygenase) | Change (Rattus norvegicus [2]) | Gastric toxicity (Rattus norvegicus [3]) | Potency (Rattus norvegicus [4]) | ED50 (Mus musculus [5]) | ED50 (Mus musculus [6]) | Change (Rattus norvegicus [7]) | Potency (Rattus norvegicus [8])
1 | Cc1ccc(C(=O)c2cccc(CC(=O)[O-])c2N)cc1.[Na+] | -39% | 0.3 µM | -17% |  |  |  |  |  | 
2 | Nc1c(CC(=O)[O-])cc(F)cc1C(=O)c1ccc(Cl)cc1Cl.[Na+] | -45% | 0.1 µM | -41% | 1 | 0.13 | 0.65 mg/kg | 0.16 mg/kg | -46% | 1.2
3 | CSc1ccc(C(=O)c2cc(F)cc(CC(=O)[O-])c2N)cc1.[Na+] | -33% | 0.008 µM | -28% |  | 0.03 | > 1 mg/kg | 0.1 mg/kg |  | 0.4
4 | Cc1ccc(C(=O)c2cc(F)cc(CC(=O)[O-])c2N)cc1.[Na+] | -36% | 0.07 µM | -32% |  |  |  |  | -49% | 
5 | Cc1cc(CC(=O)[O-])c(N)c(C(=O)c2ccc(F)cc2)c1.[Na+] | -42% | 17 µM | 0% |  |  |  |  | -35% | 
6 | Nc1c(CC(=O)[O-])cccc1C(=O)c1ccc(F)cc1.[Na+] | -35% | 0.9 µM | 0% |  |  |  |  | -36% | 
7 | Cc1ccc(CC(=O)[O-])c(N)c1C(=O)c1ccccc1.[Na+] | -1% | > 1000 µM | -38% |  |  |  |  | -13% | 
8 | Cc1ccc(C(=O)c2cc(Cl)cc(CC(=O)[O-])c2N)cc1.[Na+] | -40% | 0.02 µM | -35% | 0.7 | 0.1 | 0.43 mg/kg | 0.1 mg/kg | -44% | 1.6
9 | COc1cc(CC(=O)[O-])c(N)c(C(=O)c2ccc(Cl)cc2)c1.[Na+] | -37% | 12 µM | -26% |  |  |  |  | -36% | 
10 | Nc1c(CC(=O)[O-])cc(F)cc1C(=O)c1ccc(F)cc1.[Na+] | -40% | 0.2 µM | -42% | 0.37 | 0.01 |  | 0.71 mg/kg | -42% | 1.4
11 | Cc1cc(CC(=O)[O-])c(N)c(C(=O)c2ccc(Cl)cc2Cl)c1.[Na+] | -45% | 1 µM | -24% |  |  |  |  | -43% | 
12 | CSc1ccc(C(=O)c2cccc(CC(=O)[O-])c2N)cc1.[Na+] | -30% | 0.1 µM | -21% |  |  |  |  |  | 
13 | Nc1c(CC(=O)[O-])ccc(Cl)c1C(=O)c1ccccc1.[Na+] | -35% | 37 µM | -4% |  |  |  |  | -45% | 
14 | Cc1ccc(C(=O)c2cccc(CC(=O)[O-])c2N)c(C)c1.[Na+] | -40% | 0.1 µM | -3% |  |  |  |  | -38% | 
15 | Nc1c(CC(=O)[O-])cc(Br)cc1C(=O)c1ccc(Cl)cc1.[Na+] | -40% | 0.6 µM | -26% |  |  |  |  | -42% | 
16 | Cc1cc(CC(=O)[O-])c(N)c(C(=O)c2ccccc2)c1.[Na+] | -25% | 11 µM | -11% |  |  |  |  | -35% | 
17 | Nc1c(CC(=O)[O-])cccc1C(=O)c1ccc(C(F)(F)F)cc1.[Na+] |  | 1 µM | -38% |  |  |  |  | -24% | 
18 | Nc1c(CC(=O)[O-])cccc1C(=O)c1ccccc1Cl.[Na+] | -33% | 0.3 µM | -22% |  |  |  |  | -42% | 
19 | COc1ccc(C(=O)c2cccc(CC(=O)[O-])c2N)cc1.[Na+] | -35% | 68 µM | -10% |  |  |  |  |  | 
20 | Cc1ccc(C(=O)c2ccccc2)c(N)c1CC(=O)[O-].[Na+] | -38% | 3 µM | 2% |  |  |  |  | -39% | 
21 | CSc1ccc(C(=O)c2cc(C)cc(CC(=O)[O-])c2N)cc1.[Na+] | -42% | 0.4 µM | -26% |  |  |  |  | -47% | 
22 | Nc1c(CC(=O)[O-])cccc1C(=O)c1ccc(Cl)c(Cl)c1.[Na+] | -30% | 50 µM | -10% |  |  |  |  |  | 
23 | COc1cc(CC(=O)[O-])c(N)c(C(=O)c2ccc(Br)cc2)c1.[Na+] | -25% | 0.9 µM | -28% |  |  |  |  | -33% | 
24 | Nc1c(CC(=O)[O-])cc(Cl)cc1C(=O)c1ccc(O)cc1.[Na+] | -40% | 30 µM | -3% |  |  |  |  | -21% | 
25 | Cc1ccccc1C(=O)c1cccc(CC(=O)[O-])c1N.[Na+] | -25% | 1 µM | -13% |  |  |  |  | -32% | 
26 | Cc1ccc(C(=O)c2cc(C)cc(CC(=O)[O-])c2N)cc1.[Na+] | -42% | 30 µM | -12% |  |  |  |  | -33% | 
27 | Nc1c(CC(=O)[O-])cccc1C(=O)c1ccc(-c2ccccc2)cc1.[Na+] | -36% | 0.08 µM | -15% |  |  |  |  | -14% | 
28 | Nc1c(CC(=O)[O-])cccc1C(=O)c1cccc(Cl)c1.[Na+] | -33% | > 1000 µM | -15% |  |  |  |  | -35% | 
29 | Nc1c(CC(=O)[O-])cc(Cl)cc1C(=O)c1ccccc1.[Na+] | -35% | 1 µM | -17% |  |  |  |  |  | 
30 | Nc1c(CC(=O)[O-])cc(F)cc1C(=O)c1ccccc1.[Na+] | -20% | 0.2 µM | -9% |  |  |  |  | -33% | 
